Data reported in patent publication US6737383B1, “Herbicidal oxadiazolidines” (priority 1999, dated 2004).

Legend:
common ragweed = assay: Test D common ragweed; type: in vivo, Ambrosia elatior; details: Preemergence, 0 to 100 scale
How it was run: (§1)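 Herbicide screen in the greenhouse. A non-phytotoxic solvent mixture with surfactant carried the test chemical; in pre-emergence tests it went onto the soil of pots seeded no more than a day earlier. Injury was scored by eye 14 to 21 days after application, 0 to 100.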

goosegrass = assay: Test D goosegrass; type: in vivo, Eleusine indica; details: Preemergence, 0 to 100 scale
How it was run: as §1

common groundsel = assay: Test D common groundsel; type: in vivo, Senecio vulgaris; details: Preemergence, 0 to 100 scale
How it was run: as §1

Spanishneedles = assay: Test D Spanishneedles; type: in vivo, Bidens bipinnata; details: Preemergence, 0 to 100 scale
How it was run: as §1

Alexandergrass = assay: Test D Alexandergrass; type: in vivo, Brachiaria plantaginea; details: Preemergence, 0 to 100 scale
How it was run: as §1

sandbur = assay: Test D sandbur; type: in vivo, Cenchrus echinatus; details: Preemergence, 0 to 100 scale
How it was run: as §1

Johnson grass = assay: Test D Johnson grass; type: in vivo, Sorghum halepense; details: Preemergence, 0 to 100 scale
How it was run: as §1

common pursiane = assay: Test D common purslane; type: in vivo, Portulaca oleracea
How it was run: as §1

pitted morningglory = assay: Test D pitted morningglory; type: in vivo, Ipomoea lacunosa; details: Preemergence, 0 to 100 scale
How it was run: as §1

tall mallow = assay: Test D tall mallow; type: in vivo, Malva sylvestris; details: Preemergence, 0 to 100 scale
How it was run: as §1

purple nutsedge = assay: Test D purple nutsedge; type: in vivo, Cyperus rotundus; details: Preemergence, 0 to 100 scale
How it was run: as §1

guineagrass = assay: Test D guineagrass; type: in vivo, Panicum maximum; details: Preemergence, 0 to 100 scale
How it was run: as §1

large crabgrass = assay: Test D large crabgrass; type: in vivo, Digitaria sanguinalis; details: Preemergence, 0 to 100 scale
How it was run: as §1

surinam grass = assay: Test D surinam grass; type: in vivo, Brachiaria decumbens; details: Preemergence, 0 to 100 scale
How it was run: as §1

bermuda-grass = assay: Test D bermudagrass; type: in vivo, Cynodon dactylon; details: Preemergence, 0 to 100 scale
How it was run: as §1

[1] = Rate 16 g/ha, 0 no injury, 100 complete control
[2] = Rate 32 g/ha, 0 no injury, 100 complete control
[3] = Rate 64 g/ha, 0 no injury, 100 complete control
[4] = Rate 125 g/ha, 0 no injury, 100 complete control

Compound: C=CCn1c(=O)on(C(=O)N(c2ccccc2)C(C)C)c1=O [Compound 93]
- Plant response rating, C. ragweed (common ragweed; [1]): 0
- Plant response rating, C. ragweed (common ragweed; [2]): 0
- Plant response rating, C. ragweed (common ragweed; [3]): 0
- Plant response rating, C. ragweed (common ragweed; [4]): 10
- Plant response rating, C. ragweed (common ragweed; Rate 250 g/ha): 0
- Plant response rating, C. ragweed (common ragweed; Rate 500 g/ha): 80
- Plant response rating, Goosegrass (goosegrass; [1]): 65
- Plant response rating, Goosegrass (goosegrass; [2]): 98
- Plant response rating, Goosegrass (goosegrass; [3]): 98
- Plant response rating, Goosegrass (goosegrass; [4]): 100
- Plant response rating, Goosegrass (goosegrass; Rate 250 g/ha): 100
- Plant response rating, Goosegrass (goosegrass; Rate 500 g/ha): 100
- Plant response rating, Com. groundsel (common groundsel; [1]): 0
- Plant response rating, Com. groundsel (common groundsel; [2]): 0
- Plant response rating, Com. groundsel (common groundsel; [3]): 0
- Plant response rating, Com. groundsel (common groundsel; [4]): 35
- Plant response rating, Com. groundsel (common groundsel; Rate 250 g/ha): 0
- Plant response rating, Com. groundsel (common groundsel; Rate 500 g/ha): 100
- Plant response rating, Spanishneedles (Spanishneedles; [1]): 0
- Plant response rating, Spanishneedles (Spanishneedles; [2]): 0
- Spanishneedles plant response rating (Spanishneedles; [3]): 0
- Spanishneedles plant response rating (Spanishneedles; [4]): 10
- Plant response rating, Spanishneedles (Spanishneedles; Rate 500 g/ha): 45
- Plant response rating, Alexandergrass (Alexandergrass; [1]): 0
- Plant response rating, Alexandergrass (Alexandergrass; [2]): 10
- Plant response rating, Alexandergrass (Alexandergrass; [3]): 30
- Plant response rating, Alexandergrass (Alexandergrass; [4]): 85
- Plant response rating, Alexandergrass (Alexandergrass; Rate 250 g/ha): 100
- Plant response rating, Alexandergrass (Alexandergrass; Rate 500 g/ha): 100
- Plant response rating, Sandbur (sandbur; [1]): 0
- Plant response rating, Sandbur (sandbur; [2]): 0
- Sandbur plant response rating (sandbur; [3]): 65
- Sandbur plant response rating (sandbur; [4]): 65
- Plant response rating, Sandbur (sandbur; Rate 250 g/ha): 100
- Plant response rating, Sandbur (sandbur; Rate 500 g/ha): 100
- Plant response rating, Johnsongrass (Johnson grass; [1]): 0
- Plant response rating, Johnsongrass (Johnson grass; [2]): 0
- Plant response rating, Johnsongrass (Johnson grass; [3]): 40
- Plant response rating, Johnsongrass (Johnson grass; [4]): 75
- Plant response rating, Johnsongrass (Johnson grass; Rate 250 g/ha): 95
- Plant response rating, Johnsongrass (Johnson grass; Rate 500 g/ha): 85
- Plant response rating, C. purslane (common pursiane; Rate 16 g/ha; Preemergence; 0 to 100 scale, 0 no injury, 100 complete control): 0
- Plant response rating, C. purslane (common pursiane; Rate 32 g/ha; Preemergence; 0 to 100 scale, 0 no injury, 100 complete control): 0
- Plant response rating, C. purslane (common pursiane; Rate 64 g/ha, Preemergence; 0 to 100 scale, 0 no injury, 100 complete control): 0
- Plant response rating, C. purslane (common pursiane; Rate 125 g/ha, Preemergence; 0 to 100 scale, 0 no injury, 100 complete control): 0
- Plant response rating, C. purslane (common pursiane; Rate 250 g/ha; Preemergence; 0 to 100 scale): 0
- Plant response rating, C. purslane (common pursiane; Rate 500 g/ha, Preemergence; 0 to 100 scale): 80
- Plant response rating, C. purslane (common pursiane; Rate 500 g/ha; Preemergence; 0 to 100 scale): 0
- Plant response rating, P. morninglory (pitted morningglory; [1]): 0
- Plant response rating, P. morninglory (pitted morningglory; [2]): 0
- Plant response rating, P. morninglory (pitted morningglory; [3]): 0
- Plant response rating, P. morninglory (pitted morningglory; [4]): 0
- Plant response rating, P. morninglory (pitted morningglory; Rate 250 g/ha): 0
- Plant response rating, P. morninglory (pitted morningglory; Rate 500 g/ha): 20
- Plant response rating, Tall Mallow (tall mallow; [1]): 0
- Plant response rating, Tall Mallow (tall mallow; [2]): 0
- Tall Mallow plant response rating (tall mallow; [3]): 0
- Tall Mallow plant response rating (tall mallow; [4]): 30
- Plant response rating, Tall Mallow (tall mallow; Rate 250 g/ha): 90
- Plant response rating, Tall Mallow (tall mallow; Rate 500 g/ha): 98
- Plant response rating, Purple nutsedge (purple nutsedge; [1]): 0
- Plant response rating, Purple nutsedge (purple nutsedge; [2]): 0
- Purple nutsedge plant response rating (purple nutsedge; [3]): 20
- Purple nutsedge plant response rating (purple nutsedge; [4]): 0
- Plant response rating, Purple nutsedge (purple nutsedge; Rate 250 g/ha): 30
- Plant response rating, Purple nutsedge (purple nutsedge; Rate 500 g/ha): 100
- Plant response rating, Guineagrass (guineagrass; [1]): 65
- Plant response rating, Guineagrass (guineagrass; [2]): 75
- Plant response rating, Guineagrass (guineagrass; [3]): 100
- Plant response rating, Guineagrass (guineagrass; [4]): 100
- Plant response rating, Guineagrass (guineagrass; Rate 250 g/ha): 100
- Plant response rating, Guineagrass (guineagrass; Rate 500 g/ha): 100
- Plant response rating, Large crabgrass (large crabgrass; [1]): 90
- Plant response rating, Large crabgrass (large crabgrass; [2]): 98
- Plant response rating, Large crabgrass (large crabgrass; [3]): 98
- Plant response rating, Large crabgrass (large crabgrass; [4]): 100
- Plant response rating, Large crabgrass (large crabgrass; Rate 250 g/ha): 100
- Plant response rating, Large crabgrass (large crabgrass; Rate 500 g/ha): 100
- Plant response rating, Surinam grass (surinam grass; [1]): 0
- Plant response rating, Surinam grass (surinam grass; [2]): 0
- Surinam grass plant response rating (surinam grass; [3]): 85
- Surinam grass plant response rating (surinam grass; [4]): 90
- Plant response rating, Surinam grass (surinam grass; Rate 250 g/ha): 98
- Plant response rating, Surinam grass (surinam grass; Rate 500 g/ha): 100
- Plant response rating, Bermudagrass (bermuda-grass; [1]): 80
- Plant response rating, Bermudagrass (bermuda-grass; [2]): 80
- Plant response rating, Bermudagrass (bermuda-grass; [3]): 90
- Plant response rating, Bermudagrass (bermuda-grass; [4]): 100
- Plant response rating, Bermudagrass (bermuda-grass; Rate 250 g/ha): 100
- Plant response rating, Bermudagrass (bermuda-grass; Rate 500 g/ha): 100
